Measured values from BindingDB's records for patent US20250346564 (ARase Therapeutics, 2025).

These molecules were tested against Poly(ADP-ribose) glycohydrolase (Homo sapiens, UniProt Q86W56) (assay: Inhibition of PARG TEMU Assay).
Poly(ADP-ribose) glycohydrolase, sequence (Q86W56 whole entry): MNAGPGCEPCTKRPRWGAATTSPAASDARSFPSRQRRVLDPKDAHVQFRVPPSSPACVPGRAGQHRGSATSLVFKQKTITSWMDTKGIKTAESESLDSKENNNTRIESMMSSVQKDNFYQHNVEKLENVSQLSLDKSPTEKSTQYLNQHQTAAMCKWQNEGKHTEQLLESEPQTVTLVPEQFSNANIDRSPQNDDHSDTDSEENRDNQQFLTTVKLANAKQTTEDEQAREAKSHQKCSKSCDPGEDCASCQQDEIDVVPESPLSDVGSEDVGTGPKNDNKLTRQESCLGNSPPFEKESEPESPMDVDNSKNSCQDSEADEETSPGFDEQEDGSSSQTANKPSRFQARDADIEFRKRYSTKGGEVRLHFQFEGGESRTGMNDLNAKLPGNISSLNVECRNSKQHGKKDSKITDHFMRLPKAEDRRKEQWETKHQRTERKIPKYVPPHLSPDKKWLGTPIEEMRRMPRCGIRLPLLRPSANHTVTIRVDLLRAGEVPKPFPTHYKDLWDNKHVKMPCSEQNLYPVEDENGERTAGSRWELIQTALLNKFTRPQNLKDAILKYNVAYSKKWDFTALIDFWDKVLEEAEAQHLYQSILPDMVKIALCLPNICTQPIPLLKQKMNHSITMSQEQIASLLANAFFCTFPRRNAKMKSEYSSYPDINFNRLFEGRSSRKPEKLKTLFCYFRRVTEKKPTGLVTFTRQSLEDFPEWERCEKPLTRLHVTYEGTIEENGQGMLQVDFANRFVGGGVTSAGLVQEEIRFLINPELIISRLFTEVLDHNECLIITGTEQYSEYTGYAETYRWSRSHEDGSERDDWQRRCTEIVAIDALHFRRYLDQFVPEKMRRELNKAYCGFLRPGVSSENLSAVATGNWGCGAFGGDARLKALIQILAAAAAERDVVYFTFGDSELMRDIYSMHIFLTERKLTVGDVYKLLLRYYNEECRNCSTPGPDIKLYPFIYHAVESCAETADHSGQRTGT
Protocol: The ability of the compounds of the Examples to inhibit PARG activity in 4. (trifluoromethyl)umbelliferone (TFMU) assay was determined as described below. PARG inhibitors were added into 384 well plate for a 10-point dose response curve at 1:3 dilutions. TFMU PARG substrate and PARG (250 pM or 2 nM) were then added to the plate to initiate enzymatic reaction. After incubation with the reagent, […] was read. IC50 values were calculated using set control points for 100% inhibition as no enzyme and 0% inhibition 250 pM or 2 nM of PARG enzyme.
Work on `CC[C@@H]1C[C@]1(C)NS(=O)(=O)c1ccc2c(c1)c(=O)n(CC)c(=O)n2CC` [US20250346564, Example 13A] yielded an IC50 of over 5000 nM.
In the case of `O=C(N1CCCC1)N1CCN(c2cc(S(=O)(=O)NC3(CF)COC3)cc3c2cnn3-c2nnc(C(F)F)s2)CC1` [US20250346564, Example 36], the IC50 is reported as under 50 nM.
`CC1(NS(=O)(=O)c2cc(N3CCN(C(=O)N4CCCC4)CC3)c3cnn(-c4nnc(C(F)F)s4)c3c2)COC1` [US20250346564, Example 35] showed an IC50 of under 50 nM.
